Assay results from patent publication US20100324067A1, “TETRACYCLIC DIPYRANO-COUMARIN COMPOUNDS WITH ANTI-HIV AND ANTI-MYCOBACTERIUM TUBERCULOSIS ACTIVITIES” (priority 2007, published 2010).
In brackets after ≈: the same amount, converted by molar mass. Read-outs that look alike come from different tables or passages of the source.

Legend:
[1] = tested on: Mycobacterium tuberculosis H37Rv (ATCC 27294); experiment: Microplate Alamar Blue Assay (MABA) in BACTEC 12B medium (TAACF screen); format: cell-based
HIV-1 = experiment: Inhibitory activity against HIV-1 (literature method, Chen et al. J Virol 1997)
Protocol: Inhibitory activity of the coumarin derivatives of the present invention against HIV-1.
Inhibitory activity of the compounds against HIV-1 is assayed using the literature method. The experimental conditions, procedures, reagents and so on of the experiment are referred to the reference of “ZHIWEI CHEN, PEI ZHOU, DAVID D. HO, et al. Genetically divergent strains of simian immuno-deficiency virus use CCR5 as a coreceptor for entry. Journal of Virology, 1997, 71(4): 2705-2714”.

[2] = read-out: anti-TB active compound (MIC90 less than 10 μg/mL), classification

| SMILES | IC50 ([1]; MABA, H37Rv, read-out: IC50) [µg/mL] | MIC90 ([1]; MABA, H37Rv, read-out: MIC90) [µg/mL] | MIC90 [1, 2] [µg/mL] | melting point [°C] | EC50 (HIV-1; Human immunodeficiency virus 1) [nM] | inhibition at 1 µM (HIV-1; Human immunodeficiency virus 1, read-out: Anti-HIV (%, 1.0 μM)) [%] | anti-HIV-1 activity in vitro compared to (+)-calanolide A (HIV-1; in words) | therapeutic index, in words (HIV-1; in words) | Therapeutic index (TI) = 50% cytotoxicity doses/50% effective dose (HIV-1; value in brackets after EC50) | IC50 [1] [µg/mL] |
| --- | --- | --- | --- | --- | --- | --- | --- | --- | --- | --- |
| CCCc1cc(=O)oc2c3c(c4c(c12)OC(C)C=C4)OC(C)CC3=O (centres unmarked) [Example 80, 6,10-dimethyl-4-n-propyl-2H,6H,12H-benzo[1,2-b:3,4-b′:5,6-b″]-tripyranyl-2,12-dione] | 3.42 (≈ 10 µM) | 5.46 (≈ 16 µM) | < 10 | 125 to 127 | – | – | – | – | – | – |
| CCCc1cc(=O)oc2c3c(c4c(c12)OCC(C)C4OCC)OC(C)CC3=O (centres unmarked) [Example 95, 8-ethyoxyl-7,10-dimethyl-4-n-propyl-7,8,10,11-tetrahydro-6H-benzo[2,3-f;2′,3‘-h’ ]-trip yranyl-2,12-dione] | 20.1 (≈ 52 µM) | 34.5 (≈ 89.2 µM) | – | 198 to 201 | – | – | – | – | – | – |
| CC1CC(=O)c2c(c3c(c4c(CN5CCNCC5)cc(=O)oc24)OC(C)(C)C=C3)O1 (centres unmarked) [Example 6, 6,6,10-trimethyl-4-piperazidinylmethylene-10,11-dihydro-6H-benzo[2,3-f:2′,3′-h]-tripyranyl-2,12-dione] | 52.4 (≈ 128 µM) | > 100 | – | 156 to 158 | – | – | – | – | – | – |
| CCCc1cc(=O)oc2c3c(c4c(c12)OC(C)(C)C=C4)OC(CN=[N+]=[N-])CC3=O (centres unmarked) [Example 58] | 34.5 (≈ 87.2 µM) | 54.9 (≈ 139 µM) | – | 116 to 117 | – | – | – | – | – | – |
| CCCCC1C=Cc2c3c(c4oc(=O)c(Cl)c(CCC)c4c2O1)C(=O)CC(C)O3 (centres unmarked) [Example 49, 10-methyl-4-n-propyl-3-chloro-6-n-butyl-2H,6H,12H-benzo[1,2-b:3,4-b′:5,6-b″]-tripyranyl-2,12-dione] | 4.62 (≈ 11.1 µM) | 6.4 (≈ 15.3 µM) | < 10 | 146 to 149 | – | – | – | – | – | – |
| CCCc1cc(=O)oc2c3c(c4c(c12)OC(CC)C=C4)OC(C)CC3=O (centres unmarked) [Example 52, 10-methyl-4-n-propyl-6-ethyl-2H,6H,12H-benzo[1,2-b:3,4-b′:5,6-b″]-tripyranyl-2,12-dione] | 11.8 (≈ 33.2 µM) | 13.4 (≈ 37.8 µM) | – | 139 to 141 | – | – | – | – | – | – |
| CCCc1cc(=O)oc2c3c(c4c(c12)OC(C)(C)C=C4)OC(CNC(=O)Nc1ccc(F)cc1)CC3=O (centres unmarked) [Example 60, 6,6-dimethyl-4-n-propyl-10-(p-fluorophenylureido)methylene-2H,6H,12H-benzo[1,2-b:3,4-b′:5,6-b″]-tripyranyl-2,12-dione] | 32.5 (≈ 64.3 µM) | > 100 | – | 119 to 120.5 | – | – | – | – | – | – |
| CCCc1c(F)c(=O)oc2c3c(c4c(c12)OC(C)C=C4)OC(C)CC3=O (centres unmarked) [Example 84, 6,10-dimethyl-4-n-propyl-3-fluoro-2H,6H,12H-benzo[1,2-b:3,4-b′:5,6-b″]-tripyranyl-2,12-dione] | 17.3 (≈ 48.3 µM) | 27.7 (≈ 77.3 µM) | – | 150 to 153 | – | – | – | – | – | – |
| CCCCc1cc(=O)oc2c3c(c4c(c12)OC(CCC)C=C4)OC(C)CC3=O (centres unmarked) [Example 37, 10-methyl-6-n-propyl-4-n-butyl-2H,6H,12H-benzo[1,2-b:3,4-b′:5,6-b″]-tripyranyl-2,12-dione] | 5.33 (≈ 13.9 µM) | 8.36 (≈ 21.9 µM) | < 10 | 135 to 138 | – | – | – | – | – | – |
| CCCc1cc(=O)oc2c3c(c4c(c12)OC(c1ccccc1N)C=C4)OC(C)CC3=O (centres unmarked) [Example 99] | 7.49 (≈ 17.9 µM) | 15.5 (≈ 37.1 µM) | – | 175 to 177 | – | – | – | – | – | – |
| CC1CC(=O)c2c(c3c(c4c(-c5ccc(N)cc5)cc(=O)oc24)OC(C)(C)C=C3)O1 (centres unmarked) [Example 23, 6,6,10-trimethyl-4-p-aminophenyl-2H,6H,12H-benzo[1,2-b:3,4-b′:5,6-b″]-tripyranyl-2,12-dione] | 24.2 (≈ 60 µM) | 27.6 (≈ 68.4 µM) | – | 149 to 151 | – | – | – | – | – | – |
| CCCc1c(F)c(=O)oc2c3c(c4c(c12)OC(c1ccccc1)C=C4)OC(C)CC3=O (centres unmarked) [Example 43, 10-methyl-4-n-propyl-6-phenyl-3-fluoro-2H,6H,12H-benzo[1,2-b:3,4-b′:5,6-b″]-tripyranyl-2,12-dione] | 6.42 (≈ 15.3 µM) | 10.8 (≈ 25.7 µM) | – | 128 to 129 | – | – | – | – | – | – |
| CCOC1c2c3c(c4oc(=O)cc(CC)c4c2OCC1C)C(=O)CC(C)O3 (centres unmarked) [Example 94, 8-ethyoxyl-7,10-dimethyl-4-ethyl-7,8,10,11-tetrahydro-6H-benzo[2,3-f;2′,3′-h]-tripyranyl-2,12-dione] | 10 (≈ 26.9 µM) | 16.7 (≈ 44.8 µM) | – | 174 to 176 | – | – | – | – | – | – |
| CCCc1cc(=O)oc2c3c(c4c(c12)OC(C)(C)C=C4)OC(CCC)CC3=O (centres unmarked) [Example 14, 6,6-dimethyl-4,10-di-n-propyl-2H,6H,12H-benzo[1,2-b:3,4-b′:5,6-b″]-tripyranyl-2,12-dione] | – | 6.44 (≈ 16.8 µM) | < 10 | – | 32.5 | 61.9 | much higher inhibitory activity | high therapeutic index | 102-308 | 5.72 (≈ 15 µM) |
| CCCc1cc(=O)oc2c3c(c4c(c12)OC(C)(C)C=C4)OC(CNS(=O)(=O)c1ccc(NC(C)=O)cc1)CC3=O (centres unmarked) [Example 61, 6,6-dimethyl-4-n-propyl-10-(p-acetylaminophenylsulfonamido)methylene-2H,6H,12H-benzo[1,2-b:3,4-b′:5,6-b″]-tripyranyl-2,12-dione] | 17.2 (≈ 30.4 µM) | > 100 | – | 127 to 128.5 | – | – | – | – | – | – |
